In US12673947B2 (Cytosinlab Therapeutics Co., Ltd., priority 2020, dated 2026) one finds IC50 data, which are given here for 35 compounds.

In one assay the test system is MV4;11 cells. The experiment in a line: MV4;11 in vitro inhibition of proliferation assay (CellTiter-Glo, 72 hours). The format is cell-based. To be noted: Homo sapiens, MV4-11, 72 h, IC50 class, read-out: Inhibitory activity of cell proliferation MV4;11. Put shortly: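 IC50 came from four-parameter fitting of inhibition rates, based on CellTiter-Glo luminescence after 72 hours at 37° C. Each well held 2000 MV4;11 cells grown in IMDM with 10% serum. Compounds formed a nine-point, threefold DMSO series starting at 10 uM, tested in triplicate at 0.3% final DMSO.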
A general note: ATP-based viability assays read luminescence as a measure of living cells.

The target in a further assay is T1, FLT3 (Homo sapiens, UniProt P36888).
T1 construct: purchased Carna 08-145
T1 sequence (P36888 27-993): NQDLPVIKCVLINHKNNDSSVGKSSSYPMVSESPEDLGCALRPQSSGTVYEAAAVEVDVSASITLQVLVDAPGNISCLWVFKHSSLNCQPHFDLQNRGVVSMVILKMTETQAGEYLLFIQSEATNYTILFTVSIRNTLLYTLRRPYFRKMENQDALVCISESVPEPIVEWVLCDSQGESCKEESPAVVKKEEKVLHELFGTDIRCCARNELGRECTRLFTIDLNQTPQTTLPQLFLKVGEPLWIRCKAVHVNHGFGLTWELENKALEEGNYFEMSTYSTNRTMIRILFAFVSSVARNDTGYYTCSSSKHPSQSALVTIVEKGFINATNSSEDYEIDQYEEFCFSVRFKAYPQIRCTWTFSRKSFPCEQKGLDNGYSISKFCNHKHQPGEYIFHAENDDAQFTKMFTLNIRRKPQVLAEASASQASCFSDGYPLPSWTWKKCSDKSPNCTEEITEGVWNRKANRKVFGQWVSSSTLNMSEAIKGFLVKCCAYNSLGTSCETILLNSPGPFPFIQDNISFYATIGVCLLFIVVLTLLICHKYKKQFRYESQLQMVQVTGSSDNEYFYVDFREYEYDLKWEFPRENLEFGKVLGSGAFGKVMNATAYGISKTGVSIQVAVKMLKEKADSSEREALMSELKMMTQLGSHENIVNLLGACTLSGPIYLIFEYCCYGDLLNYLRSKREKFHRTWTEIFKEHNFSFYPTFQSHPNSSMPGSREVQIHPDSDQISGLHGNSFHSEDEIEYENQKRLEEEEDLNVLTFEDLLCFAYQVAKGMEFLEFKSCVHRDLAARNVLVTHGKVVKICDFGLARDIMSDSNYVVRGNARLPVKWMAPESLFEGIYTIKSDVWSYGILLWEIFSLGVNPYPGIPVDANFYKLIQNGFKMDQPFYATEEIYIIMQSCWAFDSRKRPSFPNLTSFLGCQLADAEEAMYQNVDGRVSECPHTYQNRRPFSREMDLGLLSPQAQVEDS
The experiment in a line: FLT3 kinase in vitro inhibitory activity experiment (Caliper mobility shift, conversion rate). The format is biochemical. Conditions: IC50 class, read-out: Enzyme activity FLT3. The gist of the method:
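Tested in single wells as ten 3-fold dilutions of a 1 μM initial stock. Compound and FLT3 stood 10 min at room temperature; ATP with Kinase substrate 2 was then added for 30 min at room temperature and the reaction stopped. Conversion was measured by Caliper mobility shift, and inhibition was normalised to control-well conversion.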

Some results are limits rather than exact numbers.

Regarding `CCOCC1(COCC)CCC(n2cc(-c3cnc(N)c4nc(CC)c(N[C@@H]5CC[C@H](O)C5)nc34)cn2)CC1` [Compound 205], the IC50 with MV4;11 cells and on FLT3 was at most 10 nM each time.

Consider `CCc1nc2c(N)ncc(-c3cnn(C4CCNCC4)c3)c2nc1NC1CCC(O)C1` (stereo not shown) [Compound 206], for which the IC50 with MV4;11 cells was 10 to 100 nM; at FLT3, at most 10 nM.

As for `CCc1nc2c(N)ncc(-c3cnn(C4CCN(CCO)CC4)c3)c2nc1N[C@@H]1CC[C@H](O)C1` [Compound 207, (1S,3R)-3-((5-amino-3-ethyl-8-(1-(1-(2-hydroxyethyl)piperidin-4-yl)-1H-pyrazol-4-yl)pyridino[3,4-b]pyrazin-2-yl)amino)cyclopentan-1-ol], the IC50 in the assay with MV4;11 cells and at FLT3 was at most 10 nM in each case.

As to `CCc1nc2c(N)ncc(-c3cnn(C4CCN(C5CCOCC5)CC4)c3)c2nc1N[C@@H]1CC[C@H](O)C1` [Compound 208], the IC50 with MV4;11 cells and at FLT3 was at most 10 nM each time.

With `CCc1nc2c(N)ncc(-c3cnn(C4CCN(C5COC5)CC4)c3)c2nc1N[C@@H]1CC[C@H](O)C1` [Compound 209], the IC50 in the assay on MV4;11 cells and at FLT3 was at most 10 nM each time.

Turning to `CCc1nc2c(N)ncc(-c3cnn(C4CCN(C5CN(C)C5)CC4)c3)c2nc1N[C@@H]1CC[C@H](O)C1` [Compound 210], the IC50 in the assay with MV4;11 cells and on FLT3 was at most 10 nM each time.

With `CCc1nc2c(N)ncc(-c3cnn(C4CCN(C5CC5)CC4)c3)c2nc1N[C@@H]1CC[C@H](O)C1` [Compound 211], the IC50 in the assay with MV4;11 cells and on FLT3 was at most 10 nM throughout.

With `CCc1nc2c(N)ncc(-c3cnn(C4CCN(C5CCC5)CC4)c3)c2nc1N[C@@H]1CC[C@H](O)C1` [Compound 212], the IC50 with MV4;11 cells and at FLT3 was at most 10 nM each time.

With `CCc1nc2c(N)ncc(-c3cnn(C4CCN(C5CCCC5)CC4)c3)c2nc1N[C@@H]1CC[C@H](O)C1` [Compound 213], the IC50 in the assay with MV4;11 cells and at FLT3 was at most 10 nM in each case.

Consider `CCc1nc2c(N)ncc(-c3cnn(C4CCN(C5CCCCC5)CC4)c3)c2nc1N[C@@H]1CC[C@H](O)C1` [Compound 214], for which the IC50 in the assay with MV4;11 cells and at FLT3 was at most 10 nM in each case.

Consider `CCc1nc2c(N)ncc(-c3cnn(C4CCN(C)CC4)c3)c2nc1N[C@@H]1CC[C@H](O)C1` [Compound 215], for which the IC50 in the assay on MV4;11 cells and at FLT3 was at most 10 nM in each case.

For the compound `CCc1nc2c(N)ncc(-c3cnn(C4CCN(CC)CC4)c3)c2nc1N[C@@H]1CC[C@H](O)C1` [Compound 216], the IC50 with MV4;11 cells and at FLT3 was at most 10 nM in each case.

Regarding `CCc1nc2c(N)ncc(-c3cnn(C4CCN(C(C)C)CC4)c3)c2nc1N[C@@H]1CC[C@H](O)C1` [Compound 217], the IC50 in the assay on MV4;11 cells and on FLT3 was at most 10 nM each time.

As to `CCc1nc2c(N)ncc(-c3cnn(C4CCN(CC(F)F)CC4)c3)c2nc1N[C@@H]1CC[C@H](O)C1` [Compound 218], the IC50 with MV4;11 cells and on FLT3 was at most 10 nM in each case.

In the case of `CCc1nc2c(N)ncc(-c3cnn(C4CCN(CC(F)(F)F)CC4)c3)c2nc1N[C@@H]1CC[C@H](O)C1` [Compound 219], the IC50 in the assay on MV4;11 cells and at FLT3 was at most 10 nM each time.

For `[2H]C([2H])([2H])N1CCC(n2cc(-c3cnc(N)c4nc(CC)c(N[C@@H]5CC[C@H](O)C5)nc34)cn2)CC1` [Compound 220], the IC50 with MV4;11 cells and at FLT3 was at most 10 nM throughout.

Turning to `[2H]C([2H])([2H])C(N1CCC(n2cc(-c3cnc(N)c4nc(CC)c(N[C@@H]5CC[C@H](O)C5)nc34)cn2)CC1)C([2H])([2H])[2H]` [Compound 221], the IC50 with MV4;11 cells and on FLT3 was at most 10 nM throughout.

As to `[2H]C([2H])([2H])C([2H])(N1CCC(n2cc(-c3cnc(N)c4nc(CC)c(N[C@@H]5CC[C@H](O)C5)nc34)cn2)CC1)C([2H])([2H])[2H]` [Compound 222], the IC50 in the assay with MV4;11 cells and on FLT3 was at most 10 nM each time.

For `CCc1nc2c(N)ncc(-c3cnn(C4CCN(C)CC4)c3)c2nc1N[C@H]1CCOC1` [Compound 223], the IC50 in the assay on MV4;11 cells and on FLT3 was at most 10 nM throughout.

Consider `CCc1nc2c(N)ncc(-c3cnn(C4CCN(CC)CC4)c3)c2nc1N[C@H]1CCOC1` [Compound 224], for which the IC50 with MV4;11 cells and at FLT3 was at most 10 nM in each case.

Consider `CCc1nc2c(N)ncc(-c3cnn(C4CCN(C(C)C)CC4)c3)c2nc1N[C@H]1CCOC1` [Compound 225], for which the IC50 with MV4;11 cells and at FLT3 was at most 10 nM in each case.

Take `CCc1nc2c(N)ncc(-c3cnn(C4CCN(C(CC)CC)CC4)c3)c2nc1N[C@H]1CCOC1` [Compound 226]: the IC50 in the assay on MV4;11 cells and at FLT3 was at most 10 nM throughout.

For the compound `CCc1nc2c(N)ncc(-c3cnn(C4CCN(C(C)CC)CC4)c3)c2nc1N[C@H]1CCOC1` (stereo partly shown) [Compound 227], the IC50 in the assay with MV4;11 cells and on FLT3 was at most 10 nM throughout.

As to `CCc1nc2c(N)ncc(-c3cnn(C4CCN(C5CC5)CC4)c3)c2nc1N[C@H]1CCOC1` [Compound 228], the IC50 is 10 to 100 nM in the assay with MV4;11 cells and at most 10 nM on FLT3.

`CCc1nc2c(N)ncc(-c3cnn(C4CCN(C(CC)CC)CC4)c3)c2nc1NC1CCOCC1` [Compound 232, 3-Ethyl-8-(1-(1-(pent-3-yl)piperidin-4-yl)-1H-pyrazol-4-yl)-N2-(tetrahydro-2H-pyran-4-yl)pyridino [3,4-b]pyrazine-2,5-diamine]: the IC50 in the assay with MV4;11 cells and on FLT3 was at most 10 nM in each case.

`CCc1nc2c(N)ncc(-c3cnn(C4CCN(CC(C)(C)O)CC4)c3)c2nc1NC1CCOCC1` [Compound 233]: the IC50 in the assay on MV4;11 cells and on FLT3 was at most 10 nM in each case.

For the compound `CCc1nc2c(N)ncc(-c3cnn(C4CCN(C(C)C)CC4)c3)c2nc1NC1CCOCC1` [Compound 234], the IC50 in the assay with MV4;11 cells and at FLT3 was at most 10 nM each time.

In the case of `CCc1nc2c(N)ncc(-c3cnn(C4CCN(C5CCN(CC)CC5)CC4)c3)c2nc1NC1CCOCC1` [Compound 235], the IC50 with MV4;11 cells and on FLT3 was at most 10 nM each time.

`CCc1nc2c(N)ncc(-c3cnn(C4CCN(C5CCN(C(C)C)CC5)CC4)c3)c2nc1NC1CCOCC1` [Compound 236]: the IC50 is 10 to 100 nM in the assay with MV4;11 cells and at most 10 nM at FLT3.

Turning to `CCc1nc2c(N)ncc(-c3cnn(C4CCN(C5CCOCC5)CC4)c3)c2nc1NC1CCOCC1` [Compound 237], the IC50 in the assay with MV4;11 cells is 10 to 100 nM; on FLT3 it was at most 10 nM.

With `CCc1nc2c(N)ncc(-c3cnn(C4CCN(C5COC5)CC4)c3)c2nc1NC1CCOCC1` [Compound 238], the IC50 is 10 to 100 nM in the assay on MV4;11 cells and at most 10 nM at FLT3.

Regarding `CCc1nc2c(N)ncc(-c3cnn(C4CCN(C5CCN(CCO)CC5)CC4)c3)c2nc1NC1CCOCC1` [Compound 239], the IC50 is 10 to 100 nM in the assay on MV4;11 cells and at most 10 nM on FLT3.

With `CCc1nc2c(N)ncc(-c3cnn(C4CCN(C5CCN(CCOC)CC5)CC4)c3)c2nc1NC1CCOCC1` [Compound 240], the results for the IC50 in the assay on MV4;11 cells and at FLT3 were 10 to 100 nM and at most 10 nM, respectively.

As to `CCc1nc2c(N)ncc(-c3cnn(C4CCN(C5CCN(CC(C)C)CC5)CC4)c3)c2nc1NC1CCOCC1` [Compound 241], the IC50 in the assay with MV4;11 cells is 10 to 100 nM; at FLT3, at most 10 nM.

On to `CCc1nc2c(N)ncc(-c3cnn(C4CCN(C5CN(C)C5)CC4)c3)c2nc1NC1CCOCC1` [Compound 242], for which the IC50 in the assay with MV4;11 cells is 10 to 100 nM; at FLT3, at most 10 nM.
